Laboratory results reported in article PMC6704710, “Preclinical evaluation of 3D185, a novel potent inhibitor of FGFR1/2/3 and CSF-1R, in FGFR-dependent and macrophage-dominant cancer models” (Journal of Experimental & Clinical Cancer Research : CR, 2019).

Legend:
[1] = tested on: ERK phosphorylation in NCI-H1581 tumors; experiment: Pharmacodynamic study, intratumoral p-ERK; settings: 6 h after single oral dose of 12.5, 25 or 50 mg/kg
[2] = target: T1, STK25(h) (Homo sapiens, UniProt O00506); experiment: Eurofins kinase panel; assay type: biochemical; settings: read-out: Inhibition rate (%)
T1 construct: purchased Eurofins (KinaseProfiler)
T1 sequence (O00506 whole entry): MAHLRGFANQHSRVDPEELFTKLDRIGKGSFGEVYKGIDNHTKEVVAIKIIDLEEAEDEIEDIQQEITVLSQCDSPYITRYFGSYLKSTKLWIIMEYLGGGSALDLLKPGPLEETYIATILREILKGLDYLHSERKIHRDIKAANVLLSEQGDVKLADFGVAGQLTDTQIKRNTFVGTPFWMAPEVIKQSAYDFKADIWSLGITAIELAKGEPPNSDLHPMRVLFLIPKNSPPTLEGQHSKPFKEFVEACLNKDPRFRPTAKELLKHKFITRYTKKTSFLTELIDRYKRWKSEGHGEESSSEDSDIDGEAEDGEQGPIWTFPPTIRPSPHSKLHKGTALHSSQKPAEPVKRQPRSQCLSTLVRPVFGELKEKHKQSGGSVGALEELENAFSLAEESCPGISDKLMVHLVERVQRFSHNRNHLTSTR

[3] = target: T2, SNRK(h) (Homo sapiens, UniProt Q9NRH2); experiment: Eurofins kinase panel; assay type: biochemical; settings: read-out: Inhibition rate (%)
T2 construct: purchased Eurofins (KinaseProfiler)
T2 sequence (Q9NRH2 1-765): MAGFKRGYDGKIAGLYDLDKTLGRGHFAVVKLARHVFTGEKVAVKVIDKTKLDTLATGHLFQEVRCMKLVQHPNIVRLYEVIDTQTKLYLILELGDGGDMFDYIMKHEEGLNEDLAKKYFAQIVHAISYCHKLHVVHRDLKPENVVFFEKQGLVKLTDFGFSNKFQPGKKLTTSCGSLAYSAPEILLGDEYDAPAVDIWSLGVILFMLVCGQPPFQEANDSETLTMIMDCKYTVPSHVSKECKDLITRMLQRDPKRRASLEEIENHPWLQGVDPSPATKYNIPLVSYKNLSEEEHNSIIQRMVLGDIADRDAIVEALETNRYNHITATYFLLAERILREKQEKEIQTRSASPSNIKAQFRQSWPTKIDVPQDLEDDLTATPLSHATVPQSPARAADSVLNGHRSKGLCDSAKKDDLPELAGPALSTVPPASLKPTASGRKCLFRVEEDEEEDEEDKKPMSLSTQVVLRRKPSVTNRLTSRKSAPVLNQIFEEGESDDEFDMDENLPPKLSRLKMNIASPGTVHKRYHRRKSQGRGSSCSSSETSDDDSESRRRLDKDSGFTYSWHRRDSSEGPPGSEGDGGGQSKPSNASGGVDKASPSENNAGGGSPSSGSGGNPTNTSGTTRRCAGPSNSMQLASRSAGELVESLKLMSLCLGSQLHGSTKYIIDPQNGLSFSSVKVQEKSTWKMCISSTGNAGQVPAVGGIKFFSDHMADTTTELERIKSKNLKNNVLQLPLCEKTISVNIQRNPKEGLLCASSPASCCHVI

[4] = target: T3, DAPK1(h) (Homo sapiens, UniProt P53355); experiment: Eurofins kinase panel; assay type: biochemical; settings: read-out: Inhibition rate (%)
T3 construct: purchased Eurofins (KinaseProfiler)
T3 sequence (P53355 whole entry): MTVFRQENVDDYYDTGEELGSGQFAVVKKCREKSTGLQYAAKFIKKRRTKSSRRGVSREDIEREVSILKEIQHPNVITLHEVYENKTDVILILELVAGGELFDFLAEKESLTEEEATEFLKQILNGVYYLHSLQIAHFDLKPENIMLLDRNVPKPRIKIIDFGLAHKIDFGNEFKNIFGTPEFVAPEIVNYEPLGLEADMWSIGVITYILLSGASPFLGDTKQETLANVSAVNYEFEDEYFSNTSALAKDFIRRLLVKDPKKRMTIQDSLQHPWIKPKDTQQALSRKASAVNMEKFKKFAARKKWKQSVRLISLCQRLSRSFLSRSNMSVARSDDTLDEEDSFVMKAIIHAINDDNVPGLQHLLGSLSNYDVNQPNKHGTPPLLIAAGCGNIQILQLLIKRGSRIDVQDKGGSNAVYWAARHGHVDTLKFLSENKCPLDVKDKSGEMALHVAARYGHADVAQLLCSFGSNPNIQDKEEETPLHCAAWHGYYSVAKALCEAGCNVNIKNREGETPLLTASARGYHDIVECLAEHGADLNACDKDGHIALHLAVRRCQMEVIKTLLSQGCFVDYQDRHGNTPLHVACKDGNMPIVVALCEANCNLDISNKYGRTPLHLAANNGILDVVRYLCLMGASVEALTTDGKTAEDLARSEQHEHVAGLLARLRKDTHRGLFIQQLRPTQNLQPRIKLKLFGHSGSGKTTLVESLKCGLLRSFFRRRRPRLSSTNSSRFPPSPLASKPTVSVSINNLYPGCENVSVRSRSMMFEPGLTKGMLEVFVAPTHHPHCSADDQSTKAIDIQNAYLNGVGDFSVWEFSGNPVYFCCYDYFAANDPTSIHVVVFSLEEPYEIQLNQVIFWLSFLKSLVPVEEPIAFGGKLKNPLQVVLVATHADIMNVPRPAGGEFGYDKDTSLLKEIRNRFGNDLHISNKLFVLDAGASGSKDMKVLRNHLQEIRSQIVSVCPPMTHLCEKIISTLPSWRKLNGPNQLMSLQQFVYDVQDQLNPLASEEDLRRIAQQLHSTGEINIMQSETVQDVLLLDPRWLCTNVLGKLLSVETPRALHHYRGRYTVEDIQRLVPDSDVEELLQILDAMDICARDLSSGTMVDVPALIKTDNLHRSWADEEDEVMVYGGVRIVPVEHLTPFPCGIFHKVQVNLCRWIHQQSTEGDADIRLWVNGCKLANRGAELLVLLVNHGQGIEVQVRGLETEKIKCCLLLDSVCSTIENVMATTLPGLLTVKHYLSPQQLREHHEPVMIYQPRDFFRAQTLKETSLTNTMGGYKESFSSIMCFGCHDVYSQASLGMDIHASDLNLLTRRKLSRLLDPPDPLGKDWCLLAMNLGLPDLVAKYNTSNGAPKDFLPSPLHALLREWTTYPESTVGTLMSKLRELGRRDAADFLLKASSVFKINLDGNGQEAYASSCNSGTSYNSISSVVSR

[5] = tested on: 20 additional tumor cell lines with low expression or activation of FGFR and CSF-1R; experiment: Cell proliferation assay, non-dependent panel; assay type: cell-based; settings: 20 cell lines
Protocol: The cancer cell lines indicated in Figure 3 were seeded in 96-well plates at a low density in growth medium. The next day, appropriate controls or the designated concentrations of the compounds were added to each well, and the cells were incubated for 72 h. HUVECs (passage 3) were seeded in 96-well plates in growth medium overnight and transferred to serum-free medium for 24 h. The following day, appropriate controls or the designated concentrations of the compounds were added to each well, and 100 ng/mL growth factor (bFGF or VEGF) was added to the indicated wells. The cells were incubated for 48 h. Finally, cell proliferation was determined using a sulforhodamine B (SRB) assay or a cell counting kit-8 (CCK-8) assay. […] IC50 values for proliferation curves were calculated using a 4-parameter logistic nonlinear regression model with SoftMax Pro Software (Molecular Devices, San Jose, USA).

[6] = target: T4, ChaK1(h) (Homo sapiens, UniProt Q96QT4); experiment: Eurofins kinase panel; assay type: biochemical; settings: read-out: Inhibition rate (%)
T4 construct: purchased Eurofins (KinaseProfiler)
T4 sequence (Q96QT4 whole entry): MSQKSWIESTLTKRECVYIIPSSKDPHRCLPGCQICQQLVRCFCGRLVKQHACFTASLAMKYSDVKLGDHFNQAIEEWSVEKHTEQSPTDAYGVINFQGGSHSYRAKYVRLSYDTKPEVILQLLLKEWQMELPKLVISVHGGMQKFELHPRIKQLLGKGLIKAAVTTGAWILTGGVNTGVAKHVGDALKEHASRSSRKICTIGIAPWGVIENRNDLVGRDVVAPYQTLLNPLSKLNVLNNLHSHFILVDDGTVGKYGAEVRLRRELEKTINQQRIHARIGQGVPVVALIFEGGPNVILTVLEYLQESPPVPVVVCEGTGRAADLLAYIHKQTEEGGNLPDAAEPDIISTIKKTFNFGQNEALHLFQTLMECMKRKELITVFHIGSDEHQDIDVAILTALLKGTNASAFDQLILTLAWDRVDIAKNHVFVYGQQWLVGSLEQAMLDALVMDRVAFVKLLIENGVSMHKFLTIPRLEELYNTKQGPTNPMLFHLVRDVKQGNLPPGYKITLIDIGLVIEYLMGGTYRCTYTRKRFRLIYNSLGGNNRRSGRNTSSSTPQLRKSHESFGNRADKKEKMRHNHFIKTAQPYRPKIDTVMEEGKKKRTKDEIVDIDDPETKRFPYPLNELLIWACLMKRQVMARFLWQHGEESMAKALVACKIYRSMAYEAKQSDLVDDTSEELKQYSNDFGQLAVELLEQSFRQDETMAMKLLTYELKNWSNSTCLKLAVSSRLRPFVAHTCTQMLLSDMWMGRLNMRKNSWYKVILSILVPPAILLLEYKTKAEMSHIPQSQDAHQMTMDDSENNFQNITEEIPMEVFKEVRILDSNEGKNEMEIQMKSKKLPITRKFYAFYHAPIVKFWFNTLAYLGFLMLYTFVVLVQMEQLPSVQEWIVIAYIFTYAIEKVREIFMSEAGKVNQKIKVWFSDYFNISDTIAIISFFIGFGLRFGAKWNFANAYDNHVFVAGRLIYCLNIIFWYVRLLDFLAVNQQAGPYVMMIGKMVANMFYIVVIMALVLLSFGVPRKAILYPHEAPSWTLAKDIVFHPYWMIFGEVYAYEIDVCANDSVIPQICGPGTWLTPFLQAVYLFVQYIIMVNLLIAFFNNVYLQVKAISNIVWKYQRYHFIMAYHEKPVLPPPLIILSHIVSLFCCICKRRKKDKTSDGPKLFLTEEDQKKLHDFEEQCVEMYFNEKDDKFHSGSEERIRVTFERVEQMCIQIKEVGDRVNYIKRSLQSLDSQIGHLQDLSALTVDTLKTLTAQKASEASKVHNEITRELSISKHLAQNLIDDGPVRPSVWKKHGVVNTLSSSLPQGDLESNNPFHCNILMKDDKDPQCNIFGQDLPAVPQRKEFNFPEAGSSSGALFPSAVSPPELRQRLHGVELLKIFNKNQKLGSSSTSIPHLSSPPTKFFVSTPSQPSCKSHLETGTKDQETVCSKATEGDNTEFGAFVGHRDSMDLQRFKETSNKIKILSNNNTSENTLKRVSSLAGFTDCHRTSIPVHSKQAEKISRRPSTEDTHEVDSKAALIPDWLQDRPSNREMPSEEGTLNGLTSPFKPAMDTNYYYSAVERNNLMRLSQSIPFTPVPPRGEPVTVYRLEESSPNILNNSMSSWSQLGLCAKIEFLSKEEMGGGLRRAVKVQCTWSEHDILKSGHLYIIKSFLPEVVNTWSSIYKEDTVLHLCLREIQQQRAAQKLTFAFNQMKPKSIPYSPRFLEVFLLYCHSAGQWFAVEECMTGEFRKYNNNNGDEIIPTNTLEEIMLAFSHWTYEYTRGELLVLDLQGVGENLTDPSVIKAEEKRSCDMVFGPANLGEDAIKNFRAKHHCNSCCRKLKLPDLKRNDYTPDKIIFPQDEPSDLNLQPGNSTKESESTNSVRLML

[7] = target: T5, CLK2(h) (Homo sapiens, UniProt P49760); experiment: Eurofins kinase panel; assay type: biochemical; settings: read-out: Inhibition rate (%)
T5 construct: purchased Eurofins (KinaseProfiler)

[8] = target: T6, FGFR4 (Homo sapiens, UniProt P22455); experiment: Kinase inhibition assay (ELISA); assay type: biochemical; settings: mean ± SD
T6 construct: purchased Eurofins (Fremont, United States)

[9] = tested on: BMDM (CSF-1); experiment: Macrophage survival (CCK-8); assay type: cell-based, murine; settings: Mus musculus, BMDM, 168 h; 7 days, mean ± SD
Protocol: Murine bone marrow and human monocytes were stimulated with CSF-1 for 7 days together with the indicated inhibitor, and cell viability was evaluated by the CCK-8 assay. The IC50 values are shown as the mean ± SD (nM) from two independent tests. B-E, To test the impact of 3D185 on the polarization of CSF-1-induced macrophages, murine bone marrow cells and human monocytes were induced to mature into macrophages with CSF-1 for 7 days and then stimulated with CSF-1, IL-4 and IL-13 for an additional 48 h. The expression of the markers MHC-II (b), CD86 (c), and CD206 (d) on induced murine macrophages and CD206 expression on induced human macrophages (e) were determined by flow cytometry, and the mean fluorescence intensity (MFI) was analyzed with FlowJo. Representative data from two independent experiments. f Murine bone marrow cells (left panel) and human monocytes (right panel) were induced to mature into macrophages with CSF-1 for 7 days and then stimulated with CSF-1, IL-4 and IL-13 and treated with vehicle or the indicated inhibitor for an additional 48 h. Then, all cells were collected to count viable cells by staining with trypan blue
Murine bone marrow-derived macrophages (BMDMs) and PBMCs were used for cell viability studies. BMDMs were harvested by flushing the tibias and femurs of 6- to 8-week-old C57BL/6 mice and depleting red blood cells (RBCs) by RBC lysis (Biogems). For BMDM survival, the cells were cultured for 7 days in RPMI 1640 containing 10% fetal bovine serum (FBS), 100 U/mL penicillin, 100 μg/mL streptomycin and 100 ng/mL mouse CSF-1 (or CSF-2) with or without the tested compounds. PBMCs were obtained from HemaCare and cultured for 7 days in RPMI 1640 containing 10% fetal bovine serum (FBS), 100 U/mL penicillin, 100 μg/mL streptomycin and 100 ng/mL human CSF-1 (or CSF-2) with or without the tested compounds. Cell viability was measured using the CCK-8 assay. For IL-4/IL-13-induced macrophage survival analysis, viable cells were counted by trypan blue exclusion.

[10] = target: T7, Tie2 (h) (Homo sapiens, UniProt Q02763); experiment: Eurofins kinase panel; assay type: biochemical; settings: read-out: Inhibition rate (%)
T7 construct: purchased Eurofins (KinaseProfiler)

[11] = target: T8, PAK1(h) (Homo sapiens, UniProt Q13153); experiment: Eurofins kinase panel; assay type: biochemical; settings: read-out: Inhibition rate (%)
T8 construct: purchased Eurofins (KinaseProfiler)
T8 sequence (Q13153 whole entry): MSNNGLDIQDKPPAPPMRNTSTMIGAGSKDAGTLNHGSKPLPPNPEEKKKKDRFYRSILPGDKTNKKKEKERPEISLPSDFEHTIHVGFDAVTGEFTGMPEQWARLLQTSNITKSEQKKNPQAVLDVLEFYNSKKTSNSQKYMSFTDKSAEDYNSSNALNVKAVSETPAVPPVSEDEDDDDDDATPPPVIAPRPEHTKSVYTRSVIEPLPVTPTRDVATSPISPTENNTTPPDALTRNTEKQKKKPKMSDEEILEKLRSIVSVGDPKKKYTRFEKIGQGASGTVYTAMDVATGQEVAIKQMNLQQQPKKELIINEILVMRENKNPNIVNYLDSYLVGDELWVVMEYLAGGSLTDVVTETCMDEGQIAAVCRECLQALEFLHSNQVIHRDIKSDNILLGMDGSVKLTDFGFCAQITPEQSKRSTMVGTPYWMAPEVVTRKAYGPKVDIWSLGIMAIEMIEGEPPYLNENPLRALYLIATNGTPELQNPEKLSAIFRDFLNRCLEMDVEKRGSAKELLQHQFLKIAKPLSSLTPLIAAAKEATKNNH

[12] = target: T9, CLK3(h) (Homo sapiens, UniProt P49761); experiment: Eurofins kinase panel; assay type: biochemical; settings: read-out: Inhibition rate (%)
T9 construct: purchased Eurofins (KinaseProfiler)
T9 sequence (P49761 whole entry): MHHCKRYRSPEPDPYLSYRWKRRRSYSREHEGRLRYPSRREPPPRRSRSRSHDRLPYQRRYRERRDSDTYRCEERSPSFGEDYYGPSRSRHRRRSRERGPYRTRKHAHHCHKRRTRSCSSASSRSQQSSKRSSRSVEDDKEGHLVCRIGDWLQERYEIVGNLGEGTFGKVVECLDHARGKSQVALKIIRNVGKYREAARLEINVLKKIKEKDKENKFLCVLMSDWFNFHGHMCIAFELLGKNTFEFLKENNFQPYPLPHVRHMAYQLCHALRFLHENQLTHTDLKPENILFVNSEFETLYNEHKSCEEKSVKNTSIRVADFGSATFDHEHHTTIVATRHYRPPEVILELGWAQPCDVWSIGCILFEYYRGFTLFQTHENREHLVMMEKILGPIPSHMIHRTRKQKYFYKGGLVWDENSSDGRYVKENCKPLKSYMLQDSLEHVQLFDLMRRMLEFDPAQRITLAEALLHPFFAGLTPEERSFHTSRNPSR

With `COc1cc(OC)c(Cl)c(-c2ccc3c(NC(=O)c4ccc(N5CCNC(C)(C)C5)cc4)n[nH]c3n2)c1Cl` [3D185] the “intratumoral ERK phosphorylation” value [1] was “nearly complete inhibition of ERK phosphorylation”, the inhibition at 0.01 µM ([2]; 10 nM) was 7% and the inhibition at 0.1 µM ([2]; 100 nM) was 22%. For the same compound, the inhibition at 1 µM ([2]; 1000 nM) was 57%, the inhibition at 0.01 µM ([3]; 10 nM) was -8% and the inhibition at 0.1 µM ([3]; 100 nM) was -42%. For the same compound, the inhibition at 1 µM ([3]; 1000 nM) was -44%, the inhibition at 0.01 µM ([4]; 10 nM) was 5% and the inhibition at 0.1 µM ([4]; 100 nM) was 13%. The inhibition at 1 µM ([4]; 1000 nM) was 19%, the IC50 [5] was > 1000 nM and the inhibition at 0.01 µM ([6]; 10 nM) was 2%. The inhibition at 0.1 µM ([6]; 100 nM) was -10%, the inhibition at 1 µM ([6]; 1000 nM) was 8% and the inhibition at 0.01 µM ([7]; 10 nM) was 5%. The inhibition at 0.1 µM ([7]; 100 nM) was 3%, the inhibition at 1 µM ([7]; 1000 nM) was 7% and the IC50 [8] was 51.4 nM. For the same compound, the IC50 [9] was 57.8 nM, the inhibition at 0.01 µM ([10]; 10 nM) was 19% and the inhibition at 0.1 µM ([10]; 100 nM) was 64%. It also gave an inhibition at 1 µM ([10]; 1000 nM) of 95%, an inhibition at 0.01 µM ([11]; 10 nM) of 5% and an inhibition at 0.1 µM ([11]; 100 nM) of 6%. The inhibition at 1 µM ([11]; 1000 nM) was 2%, the inhibition at 0.01 µM ([12]; 10 nM) was 2% and the inhibition at 0.1 µM ([12]; 100 nM) was 9%. The inhibition at 1 µM ([12]; 1000 nM) was 16%.
